Source: PubChem BioAssay (NCI)
Where “and” joins values, the source holds several entries; their conditions need not be identical. Equal entries are not always repeated.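 Exposure lasted 48 hours, with cells grown in 96-well plates and compounds tested at five concentrations. GI50: concentration for 50% inhibition of growth. Definition used: TGI = concentration required for complete inhibition of growth.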

Assays:
Test in all cases: NCI-60 cell line screen, 48 h
[1] = test system: OVCAR-4 ovarian
[2] = test system: HS 578T breast
[3] = test system: RPMI-8226 leukemia
[4] = test system: HCT-116 colon
[5] = test system: UACC-257 melanoma
[6] = test system: NCI-H23 lung
[7] = test system: DU-145 prostate
[8] = test system: OVCAR-8 ovarian
[9] = test system: SR leukemia
[10] = test system: HOP-92 NSCLC
[11] = test system: SN12C renal
[12] = test system: HCC-2998 colon

| SMILES | TGI [1] [µM] | TGI [2] [µM] | TGI [3] [µM] | TGI [4] [µM] | TGI [5] [µM] | TGI [6] [µM] | TGI [7] [µM] | TGI [8] [µM] | TGI [9] [µM] | TGI [10] [µM] | TGI [11] [µM] | TGI [12] [µM] | GI50 [1] [µM] | GI50 [3] | GI50 [4] | GI50 [6] [µM] | GI50 [8] [µM] | GI50 [12] [µM] | GI50 [10] [µM] | GI50 [11] [µM] |
| --- | --- | --- | --- | --- | --- | --- | --- | --- | --- | --- | --- | --- | --- | --- | --- | --- | --- | --- | --- | --- |
| O=C1C(C=NCCc2c[nH]c3ccccc23)C(C(F)(F)F)=NN1c1nc2ccccc2s1 (stereo not given) | 63 | > 100 | 62.5 | > 100 | 41.9 | > 100 | 79.5 | > 100 | 93.9 | 48.5 | > 100 |  |  |  |  |  |  |  |  |  |
| CCN(CCCN(CC)C(=O)N[C@@H](Cc1ccccc1)C(=O)NC)C(=O)N[C@@H](Cc1ccccc1)C(=O)NC | > 100 | > 100 |  | > 100 | > 100 | > 100 | > 100 | > 100 | > 100 | > 100 |  | > 100 |  |  |  |  |  |  |  |  |
| CSc1c(C(=O)Nc2ccc(C)cc2)c(N)[nH]c(=O)c1C#N | > 100 | > 100 | > 100 | > 100 | > 100 | > 100 | > 100 | > 100 | > 100 |  | > 100 | > 100 |  |  |  |  |  |  |  |  |
| NCCCC(N)C(=O)O (stereo not given) | > 100 | > 100 | > 100 | > 100 | > 100 | > 100 | > 100 | > 100 | > 100 | > 100 | > 100 |  |  |  |  |  |  |  |  |  |
| CN(C)c1ccc(/C(Br)=C2\OC(=O)c3ccccc32)cc1 | > 100 | > 100 | 71.7 | > 100 | > 100 | > 100 | > 100 | > 100 | > 100 |  | > 100 | > 100 |  |  |  |  |  |  |  |  |
| Cc1ccc(C2=Nc3c(c(C)nn3-c3ccccc3)N=C(C(=O)O)C2)cc1 | > 10 | > 10 |  | > 10 | > 10 | > 10 | > 10 | > 10 |  | > 10 | > 10 | > 10 |  |  |  |  |  |  |  |  |
| COc1cc2c(cc1OC)C(=O)/C(=C/c1cc(C)c(O)c(C)c1)C2 | > 100 | > 100 | > 100 |  | > 100 | > 100 | > 100 |  | > 100 | > 100 | > 100 | > 100 |  |  |  |  |  |  |  |  |
| CN1CCN(C(=S)N(C)C(=O)c2ccc(Cl)cc2)CC1 | > 100 | > 100 | > 100 |  | > 100 | > 100 | > 100 | > 100 |  | > 100 | > 100 | > 100 |  |  |  |  |  |  |  |  |
| Cc1nc2ccc([N+](=O)[O-])cc2c(=O)n1C(=S)Nc1cccc(Cl)c1 | > 100 | 72.4 | 19.6 | 36.9 | 41.2 | 38.1 | > 100 |  | > 100 | 25.6 | 51.4 | 26 |  |  |  |  |  |  |  |  |
| Brc1ccc2c3c1[C@@H]1O[C@@H]1c1cccc(c1-3)[C@@H]1O[C@H]21 | 41.3 | 80.8 | > 100 | 45.7 | 98.4 | 33.7 | > 72.5 | 30.8 | > 100 | 43.5 | 45.9 |  |  |  |  |  |  |  |  |  |
| CO/N=C1/c2sccc2[C@H](NC(=O)CNC(=O)OC(C)(C)C)[C@@H]1O | > 100 | > 100 |  | > 100 | > 100 | > 100 | > 100 | > 100 | > 100 | > 100 | > 100 | > 100 |  |  |  |  |  |  |  |  |
| CCOc1ccc(N=C/C=C(\Cl)c2ccc3ccccc3c2)cc1 | 26.3 | 82.2 | 24.7 | 21.6 | 30.8 | 25.1 | 30.7 | 32.8 | 5.31 | 33.3 | 33.9 |  |  |  |  |  |  |  |  |  |
| Cc1oc2nc(N(C)C)n3nnnc3c2c1C | > 100 | > 100 | > 100 | > 100 | > 100 | > 100 | > 100 | > 100 |  | > 100 | > 100 | > 100 |  |  |  |  |  |  |  |  |
| N#Cc1c(OCCF)c2ccccc2n2c1nc1ccccc12 | 92 | > 100 | > 100 | > 100 | > 100 | > 100 | > 100 | > 100 | > 100 |  |  | > 100 |  |  |  |  |  |  |  |  |
| COc1cc([C@@H]2c3cc4c(cc3C[C@H]3COC(=O)[C@@H]32)OCO4)cc(OC)c1OC | > 50 | 0.00715 | 6.57 |  | > 5 | 3.52 | 0.00914 | 0.324 |  |  | > 10.8 | 1.01 | 21.8 | 0.00382 µM and 0.01 µM | 0.0026 µM and 0.00848 µM | 0.00428 | 0.00407 | 0.00446 | 0.00752 | 0.0067 |
| O=C(CCc1ccc(O)cc1)c1c(O)cc(O)cc1OC1OC(CO)C(O)C(O)C1O (stereo not given) | > 100 | > 100 |  | > 100 | > 100 | > 100 | > 100 |  |  | > 100 |  | > 100 |  |  |  |  |  |  |  |  |

| SMILES | TGI [1] [µM] | TGI [2] [µM] | TGI [3] [µM] | TGI [4] [µM] | TGI [5] [µM] | TGI [6] [µM] | TGI [7] [µM] | TGI [8] [µM] | TGI [9] [µM] | TGI [10] [µM] | TGI [11] [µM] | TGI [12] [µM] | GI50 [1] [µM] | GI50 [3] | GI50 [4] | GI50 [6] [µM] | GI50 [8] [µM] | GI50 [12] [µM] | GI50 [10] [µM] | GI50 [11] [µM] |
| --- | --- | --- | --- | --- | --- | --- | --- | --- | --- | --- | --- | --- | --- | --- | --- | --- | --- | --- | --- | --- |
| Nc1ncnc2c1ncn2C(=O)NC12CC3CC(CC(C3)C1)C2 | > 100 | > 100 | > 100 | > 100 | > 100 | > 100 | > 100 | > 100 |  | > 100 | > 100 | > 100 |  |  |  |  |  |  |  |  |
| CCn1c(=O)c2c3cc(O)ccc3oc2c2ccc(O)cc21 | > 100 | > 100 |  |  | > 100 | > 100 | > 100 | > 100 | 63.5 | 80.3 | > 100 | 50.9 |  |  |  |  |  |  |  |  |
| Cc1cc(O)cc(O)c1N=Nc1ccc([N+](=O)[O-])cc1 | 57 | 73.7 | 39.8 | 15.4 | 79.5 | 52 | 79.1 | > 100 |  | 8.17 | 54 | 49 |  |  |  |  |  |  |  |  |
| CC1CC(C#N)=C2NCCCCN2C1=O (stereo not given) | > 100 | > 100 | > 100 |  | > 100 | > 100 | > 100 | > 100 | > 100 |  | > 100 | > 100 |  |  |  |  |  |  |  |  |
| COc1cccc(C2c3cc4c(cc3OC(N3CCCC3)C2C)OCO4)c1OC (stereo not given) |  | 11.1 | 13.2 | 5.99 |  |  | 11.5 | 39.8 | 15.2 |  | 14.5 |  |  |  |  |  |  |  |  |  |
| CC1=C2c3ccccc3N(C(=O)/C=C/C(=O)O)[C@H]2[C@H]2C(=O)OC(=O)[C@H]2C1 | > 10 | > 10 | > 10 | > 10 |  | > 10 | > 10 | > 10 | > 10 |  | > 10 | > 10 |  |  |  |  |  |  |  |  |
| Cc1nc2cc(C(F)(F)F)ccc2[nH]c1=O | > 100 | > 100 | > 100 | > 100 | > 100 | > 100 | > 100 | > 100 |  | > 100 | > 100 | > 100 |  |  |  |  |  |  |  |  |
| CCOC(=O)c1cnc2[nH]ccn2c1=O | > 10 | > 10 | > 10 | > 10 | > 10 | > 10 | > 10 | > 10 | > 10 | > 10 | > 10 |  |  |  |  |  |  |  |  |  |
| Cc1cccc(C[C@@]2(SCc3ccccc3)C(C)(C)[C@@H]3CC[C@@]2(C)C3)n1 |  | 49.1 | 30.5 | 31.9 | 29.9 | 31.4 | 32.2 | 30 | 31.9 | 27.6 | 31.5 | 28.8 |  |  |  |  |  |  |  |  |
| O=C1/C(=C/c2ccc(F)cc2)CNC/C1=C\c1ccc(F)cc1 | > 36.8 | > 42.1 |  | 0.915 | 28 | 3.5 | 3.96 | 9.52 | > 100 | > 21.5 | 6.71 | 1.74 |  |  |  |  |  |  |  |  |
| O=C(/C=C/c1cccs1)c1ccc(Cl)cc1 |  | > 100 | 57.8 | > 100 | > 100 | > 100 | > 100 | > 100 | 71.1 |  | > 100 | > 100 |  |  |  |  |  |  |  |  |
| Cc1nc(Cl)c(CBr)c(Cl)n1 | 3.56 | 5.94 | 4.47 | 1.19 | 3.37 | 3.69 | 8.33 | 6.47 | 0.554 |  | 3.75 | 11.5 |  |  |  |  |  |  |  |  |
| O=C1/C(=C/c2ccc(Br)s2)NC(=S)N1CN1CCOCC1 | > 100 | > 100 | 43 | > 100 | > 100 | > 100 | > 100 | > 100 | 55.2 |  | > 100 | > 100 |  |  |  |  |  |  |  |  |
| COc1ccc(NC2Oc3cc4c(cc3C(c3cc(OC)c(OC)c(OC)c3)C2C)OCO4)cc1 (stereo not given) | > 100 | > 100 | > 83 | 19.1 | > 78.5 | > 89.7 | > 91.4 | > 45.4 |  | 33.7 | > 81.5 |  |  |  |  |  |  |  |  |  |
| CCOC(=O)C(=O)N1C(C)=C(C(=O)OCC)CC(C(=O)OCC)=C1C | > 100 | > 100 | > 100 | > 100 | > 100 | > 100 | > 100 |  | > 100 | > 100 | > 100 | > 100 |  |  |  |  |  |  |  |  |
